Assays:
[1] = test system: VERPE; test: Post-emergence herbicidal action against VERPE; type: in vivo, Veronica persica
How it was run: (§1)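 Visual % rating (0% = as untreated, 100% = dead) ~3 wk after spraying one-leaf-stage plants grown in sandy loam; WP/EC in water at 600–800 l/ha, 0.2% wetting agent.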

[2] = test system: ECHCG; test: Post-emergence herbicidal action against ECHCG; type: in vivo, Echinochloa crus-galli; details: dosage 20 g/ha
How it was run: as §1

[3] = test system: VIOTR; test: Pre-emergence herbicidal action against VIOTR; type: in vivo, Viola tricolor
How it was run: (§2)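 Sandy loam pots, seeds covered with soil, then surface-treated with WP or EC formulations at 600–800 l/ha water plus 0.2% wetting agent. Greenhouse, 3 weeks. Percent damage vs untreated controls.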

[4] = test system: MATIN; test: Pre-emergence herbicidal action against MATIN; type: in vivo, Matricaria inodora
How it was run: as §2

[5] = test system: VIOTR; test: Post-emergence herbicidal action against VIOTR; type: in vivo, Viola tricolor; details: Viola tricolor, 504 h
How it was run: as §1

[6] = test system: MATIN; test: Post-emergence herbicidal action against MATIN; type: in vivo, Matricaria inodora
How it was run: as §1

[7] = test system: ECHCG; test: Pre-emergence herbicidal action against ECHCG; type: in vivo, Echinochloa crus-galli; details: 80 g/ha
How it was run: as §2

[8] = test system: AMARE; test: Pre-emergence herbicidal action against AMARE; type: in vivo, Amaranthus retroflexus
How it was run: as §2

[9] = test system: VERPE; test: Pre-emergence herbicidal action against VERPE; type: in vivo, Veronica persica; details: dosage 80 g/ha
How it was run: as §2

[10] = test system: POLCO; test: Pre-emergence herbicidal action against POLCO; type: in vivo, Polygonum convolvulus
How it was run: as §2

[11] = test system: AMARE; test: Post-emergence herbicidal action against AMARE; type: in vivo, Amaranthus retroflexus; details: 20 g/ha, visual assessment about 3 weeks after treatment, 100% = plants have died, 0% = like control plants
How it was run: as §1

[12] = test system: SETVI; test: Pre-emergence herbicidal action against SETVI; type: in vivo, Setaria viridis
How it was run: as §2

[13] = test system: PHBPU; test: Pre-emergence herbicidal action against PHBPU; type: in vivo, Pharbitis purpurea; details: dosage 80 g/ha
How it was run: as §2

[14] = test system: DIGSA; test: Pre-emergence herbicidal action against DIGSA; type: in vivo, Digitaria sanguinalis
How it was run: as §2

[15] = test system: DIGSA; test: Post-emergence herbicidal action against DIGSA; type: in vivo, Digitaria sanguinalis
How it was run: as §1

[16] = test system: ABUTH; test: Pre-emergence herbicidal action against ABUTH; type: in vivo, Abutilon theophrasti
How it was run: as §2

[17] = test system: SETVI; test: Post-emergence herbicidal action against SETVI; type: in vivo, Setaria viridis
How it was run: as §1

[18] = test system: ABUTH; test: Post-emergence herbicidal action against ABUTH; type: in vivo, Abutilon theophrasti; details: visual assessment about 3 weeks after treatment vs untreated controls
How it was run: as §1

[19] = test system: PHBPU; test: Post-emergence herbicidal action against PHBPU; type: in vivo, Pharbitis purpurea
How it was run: as §1

[20] = test system: ALOMY; test: Pre-emergence herbicidal action against ALOMY; type: in vivo, Alopecurus myosuroides; details: 80 g/ha, pre-emergence, scored visually after 3 weeks vs untreated controls (100% = plants have died, 0% = like control plants)
How it was run: as §2

[21] = test system: ALOMY; test: Post-emergence herbicidal action against ALOMY; type: in vivo, Alopecurus myosuroides; details: dosage 20 g/ha, visual assessment about 3 weeks after treatment vs untreated controls
How it was run: as §1

[22] = test system: AVEFA; test: Pre-emergence herbicidal action against AVEFA; type: in vivo, Avena fatua; details: 80 g/ha, pre-emergence
How it was run: as §2

[23] = Tripleurospermum inodorum, 504 h, dosage 20 g/ha
[24] = Setaria viridis, 504 h, dosage 20 g/ha
[25] = 20 g/ha, scored visually after 3 weeks vs untreated controls, 100% = plants have died, 0% = like control plants
[26] = 80 g/ha, scored visually after 3 weeks vs untreated controls (100% = plants have died, 0% = like control plants)

CNC(=O)c1c(C(F)F)ccc(C(=O)Nc2nnnn2C)c1C1CC1 [Example 1-304]
pest or weed control at 5 g/ha ([1]; Veronica persica, 504 h, 5 g/ha): 80% | pest or weed control at 20 g/ha ([1]; Veronica persica, 504 h, 20 g/ha): 80% | pest or weed control at 20 g/ha ([2]; Echinochloa crus-galli, 504 h): 90% | pest or weed control at 20 g/ha ([3]; Viola tricolor, 504 h, dosage 20 g/ha): 100% | pest or weed control at 80 g/ha ([3]; Viola tricolor, 504 h, dosage 80 g/ha): 100% | pest or weed control at 20 g/ha [4, 23]: 90% | pest or weed control at 80 g/ha ([4]; Tripleurospermum inodorum, 504 h, dosage 80 g/ha): 100% | pest or weed control at 5 g/ha ([5]; 5 g/ha): 80% | pest or weed control at 20 g/ha ([5]; 20 g/ha): 90% | pest or weed control at 5 g/ha ([6]; Tripleurospermum inodorum, 504 h, dosage 5 g/ha): 90% | pest or weed control at 20 g/ha [6, 23]: 90% | pest or weed control at 80 g/ha ([7]; Echinochloa crus-galli, 504 h): 100% | pest or weed control at 20 g/ha ([8]; Amaranthus retroflexus, 504 h, 20 g/ha, scored visually after 3 weeks vs untreated controls, 100% = plants have died, 0% = like control plants): 100% | pest or weed control at 80 g/ha ([8]; Amaranthus retroflexus, 504 h, 80 g/ha, scored visually after 3 weeks vs untreated controls, 100% = plants have died, 0% = like control plants): 100% | pest or weed control at 80 g/ha ([9]; Veronica persica, 504 h): 100% | pest or weed control at 80 g/ha ([10]; Fallopia convolvulus, 504 h, dosage 80 g/ha): 80% | pest or weed control at 20 g/ha ([11]; Amaranthus retroflexus, 504 h): 90% | pest or weed control at 20 g/ha [12, 24]: 90% | pest or weed control at 80 g/ha ([12]; Setaria viridis, 504 h, dosage 80 g/ha): 100% | pest or weed control at 80 g/ha ([13]; Ipomoea purpurea, 504 h): 80% | pest or weed control at 20 g/ha ([14]; Digitaria sanguinalis, 504 h, dosage 20 g/ha): 100% | pest or weed control at 80 g/ha ([14]; Digitaria sanguinalis, 504 h, dosage 80 g/ha): 100% | pest or weed control at 20 g/ha ([15]; Digitaria sanguinalis, 504 h, 20 g/ha): 90% | pest or weed control at 80 g/ha ([16]; Abutilon theophrasti, 504 h, 80 g/ha, scored visually after 3 weeks vs untreated controls (100% = plants have died, 0% = like control plants)): 100% | pest or weed control at 20 g/ha ([16]; Abutilon theophrasti, 504 h, dosage 20 g/ha, scored visually after 3 weeks vs untreated controls, 100% = plants have died, 0% = like control plants, read-out: Pre-emergence action against ABUTH (herbicidal activity in percent)): 100% | pest or weed control at 5 g/ha ([17]; Setaria viridis, 504 h, dosage 5 g/ha): 90% | pest or weed control at 20 g/ha [17, 24]: 90% | pest or weed control at 5 g/ha ([18]; Abutilon theophrasti, 504 h, dosage 5 g/ha): 90% | pest or weed control at 20 g/ha ([18]; Abutilon theophrasti, 504 h, dosage 20 g/ha): 90%

CCn1nnnc1NC(=O)c1ccc(C(F)(F)F)c(C(=O)NC2CCC2)c1Cl [Example 2-146]
Post-emergence action against VERPE in % ([1]; 20 g/ha): 80% | Post-emergence action against PHBPU in % ([19]; dosage 5 g/ha): 80% | Post-emergence action against PHBPU in % ([19]; dosage 20 g/ha): 90% | Pre-emergence action against VIOTR in % ([3]; dosage 20 g/ha): 100% | Pre-emergence action against VIOTR in % ([3]; dosage 80 g/ha): 100% | Pre-emergence action against MATIN in % ([4]; dosage 20 g/ha): 100% | Pre-emergence action against MATIN in % ([4]; dosage 80 g/ha): 100% | Post-emergence action against MATIN in % ([6]; dosage 5 g/ha): 80% | Post-emergence action against MATIN in % ([6]; dosage 20 g/ha): 90% | Pre-emergence action against AMARE in % [8, 25]: 100% | Pre-emergence action against AMARE in % [8, 26]: 100% | Pre-emergence action against VERPE in % [9]: 80% | Pre-emergence action against POLCO in % ([10]; dosage 20 g/ha): 80% | Pre-emergence action against POLCO in % ([10]; dosage 80 g/ha): 80% | Post-emergence action at 20 g/ha against AMARE in % [11]: 80% | Pre-emergence action against SETVI in % ([12]; dosage 80 g/ha): 100% | Pre-emergence action against PHBPU in % [13]: 90% | Pre-emergence action against DIGSA in % ([14]; dosage 80 g/ha): 100% | Pre-emergence action against ALOMY (herbicidal activity) [20]: 80% | Pre-emergence action against ABUTH (herbicidal activity) [16, 26]: 90% | Post-emergence action against ABUTH in % ([18]; dosage 20 g/ha): 80%

CCn1nnnc1NC(=O)c1ccc(C(F)F)c(C(=O)NCC(F)F)c1C [Example 2-49]
Post-emergence action against ALOMY in % [21]: 80% | Post-emergence action against ECHCG in % [2]: 90% | Post-emergence action against PHBPU in % ([19]; dosage 5 g/ha): 80% | Post-emergence action against PHBPU in % ([19]; dosage 20 g/ha): 90% | Pre-emergence action against VIOTR in % ([3]; dosage 20 g/ha): 90% | Pre-emergence action against VIOTR in % ([3]; dosage 80 g/ha): 100% | Pre-emergence action against MATIN in % ([4]; dosage 20 g/ha): 100% | Pre-emergence action against MATIN in % ([4]; dosage 80 g/ha): 100% | Post-emergence action against MATIN in % ([6]; dosage 5 g/ha): 80% | Post-emergence action against MATIN in % ([6]; dosage 20 g/ha): 80% | Pre-emergence action against ECHCG in % [7]: 90% | Pre-emergence action against AMARE in % [8, 25]: 100% | Pre-emergence action against AMARE in % [8, 26]: 100% | Pre-emergence action against VERPE in % [9]: 100% | Pre-emergence action against POLCO in % ([10]; dosage 80 g/ha): 90% | Post-emergence action at 20 g/ha against AMARE in % [11]: 100% | Pre-emergence action against SETVI in % ([12]; dosage 80 g/ha): 100% | Pre-emergence action against PHBPU in % [13]: 80% | Pre-emergence action against DIGSA in % ([14]; dosage 20 g/ha): 100% | Pre-emergence action against DIGSA in % ([14]; dosage 80 g/ha): 100% | Pre-emergence action against ALOMY (herbicidal activity) [20]: 90% | Post-emergence action against DIGSA in % ([15]; 5 g/ha): 90% | Post-emergence action against DIGSA ([15]; 20 g/ha): 90% | Pre-emergence action against ABUTH (herbicidal activity) [16, 26]: 100% | Pre-emergence action against ABUTH (herbicidal activity in percent) ([16]; dosage 20 g/ha, scored visually after 3 weeks vs untreated controls, 100% = plants have died, 0% = like control plants): 100% | Pre-emergence action against AVEFA in % [22]: 80% | Post-emergence action against SETVI in % ([17]; dosage 20 g/ha): 90% | Post-emergence action against ABUTH in % ([18]; dosage 5 g/ha): 90% | Post-emergence action against ABUTH in % ([18]; dosage 20 g/ha): 90%

Source: US12655116B2, “Substituted isophthalic acid diamides” (Bayer Aktiengesellschaft, priority 2020, dated 2026)
